Measured values published in US20180021373A1, “Ruthenium and Indium Binding to Gastrins” (EUPHARMA PTY LTD, priority 2015, published 2018).
pKd: −log10 of the molar value. Where two headings read alike, the source gives them in different places.

Columns and labels:
[1] = target: T1, Ggly (Homo sapiens, UniProt P01350); settings: 20 equivalents; WO 2004/089976; cited from earlier work
[2] = target: T2, progastrin (Homo sapiens, UniProt P01350); settings: competition with ^59Fe^3+ ions (Baldwin 2004); cited from earlier work
T2 sequence (P01350 27-101 limits assumed): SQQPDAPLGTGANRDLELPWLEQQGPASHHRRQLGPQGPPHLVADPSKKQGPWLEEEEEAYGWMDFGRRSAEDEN

[3] = target: T1, Ggly; settings: Ggly binds two Bi^3+ ions at pH 4; read-out: affinity; cited from earlier work
[4] = target: T1, Ggly; settings: cited from earlier work; for quenching of Ggly fluorescence: WO 2004/089976; for binding to Ggly: detected by measurement of Ggly fluorescence (Baldwin 2001)
[5] = target: T3, Gamide (Homo sapiens, UniProt P01350); test: Absorption spectroscopy (280 nm) of metal ion binding to Gamide, fitted with BioEqs; settings: for A280 (%) for first site / A280 (%) for second site / A280 (%) for mixed FeGastrinM complex: percentage absorbance at 280 nm, fitted
T3 construct: amidated gastrin34 and amidated gastrin17 (Gamide); purchased Auspep (Clayton, Australia)
Procedure: (§1) Gamide and Ggly (88 and 93% pure, respectively) were purchased from Auspep (Clayton, Australia). The impurities consisted of water and salts. Solutions of metal ions (Aldrich, St. Louis, Mo.) were prepared in 10 mM HCl, and their concentrations determined by inductively coupled plasma-atomic emission spectroscopy at the National Measurement Institute (Pymble, Australia).
(§2) The 280 nm absorption of peptides (10 μM in 10 mM sodium acetate, pH 4.0, containing 100 mM NaCl and 0.005% Tween 20) in the presence of increasing concentrations of metal ions was measured against a buffer blank, in 1 ml quartz cuvettes thermostatted at 298 K, with a Cary 5 spectrophotometer (Varian, Mulgrave, Australia).
(§3) Data (expressed as means±S.E.M.) were fitted to one-site or two-site ordered models (as per FIG. 1) with the program BioEqs.
(§4) New absorption data sets were obtained, and fitted with the program Bioeqs as described in the Materials and Methods section. […] In the 2 site competitive model gastrin binds two ferric ions with dissociation constants Kd1Fe and Kd2Fe, and two metal ions M to the same two sites with dissociation constants Kd1M and Kd2M. The dissociation constant Kd3M describes the formation of the mixed FeGastrinM complex.

[6] = target: T1, Ggly; test: Absorption spectroscopy (280 nm) of metal ion binding to Ggly, fitted with BioEqs; settings: for A280 (%) for first site / A280 (%) for second site / A280 (%) for mixed FeGastrinM complex: Ggly, percentage absorbance at 280 nm, fitted
Procedure: as §1, §2, §3, §4

[7] = tested on: gastrins; test: Screen of binding affinities of a range of metals to gastrins
[8] = tested on: colon; settings: infusion into gastrin-deficient mice (Wang 1996); cited from earlier work
[9] = Gamide 10 μM, pH 4.0, 298 K, 2 site model (Fe, Ga) or 2 site competitive model vs Fe^3+ (In, Ru), read-out: Kd1 (first iron binding site)
[10] = Gamide 10 μM, pH 4.0, 298 K, 2 site or 2 site competitive model, read-out: Kd2 (second site)
[11] = read-out: Kd2 (second site), Ggly 10 μM, pH 4.0, 298 K, 2 site or 2 site competitive model
[12] = Gamide, 2 site competitive model, read-out: Kd3 (formation of mixed FeGastrinM complex)

Compound: [Al+3] [Al(III)]
- shift in Ggly NMR signals [1]: nor did 20 equivalents of Al^3+ cause any significant shift in Ggly NMR signals
- binding to progastrin [2]: does not bind

Compound: [Bi+3] [Bi^3+]
- pKd [3]: 5.24

Compound: [Ca+2] [Ca(II)]
- binding to progastrin [2]: does not bind

Compound: [Co+2] [Co(II)]
- quenching of Ggly fluorescence [4]: not quench fluorescence
- binding to Ggly [4]: does not bind
- binding to progastrin [2]: does not bind

Compound: [Cr+3] [Cr(III)]
- quenching of Ggly fluorescence [4]: not quench fluorescence
- binding to Ggly [4]: does not bind
- binding to progastrin [2]: does not bind

Compound: [Cu+2] [Cu(II)]
- quenching of Ggly fluorescence [4]: not quench fluorescence
- binding to Ggly [4]: does not bind
- binding to progastrin [2]: does not bind

Compound: [Eu+3] [Eu(III)]
- binding to progastrin [2]: does not bind

Compound: [Fe+2] [Fe(II)]
- binding to progastrin [2]: does not bind

Compound: [Fe+3] [Fe^3+]
- pKd [5, 9]: 9.52
- pKd [5, 10]: 10.07
- A280 (%) for first site ([5]; Gamide): 100.0%
- A280 (%) for second site ([5]; Gamide): 313.4%
- A280 (%) for first site [6]: 100.0%
- A280 (%) for second site [6]: 365.9%
- pKd ([6]; Kd1 (first iron binding site), Ggly 10 μM, pH 4.0, 298 K, 2 site model (Fe, Ga) or 2 site competitive model vs Fe^3+ (In, Ru)): 8.24
- pKd ([6]; Kd2 (second site), Ggly 10 μM, pH 4.0, 298 K, 2 site or 2 site competitive model): 8.15

Compound: [Ga+3] [Ga^3+]
- pKd [5, 9]: 6.48
- pKd [5, 10]: 5.96
- A280 (%) for first site ([5]; Gamide): 100.0%
- A280 (%) for second site ([5]; Gamide): 335.8%
- pKd ([5]; Gastrin/Gamide, 2 site model, read-out: dissociation constant (Kd), first site): 6.48
- pKd ([5]; Gastrin/Gamide, 2 site model, read-out: dissociation constant (Kd), second site): 5.96
- pKd [6]: 7.77
- A280 (%) for first site [6]: 100.0%
- A280 (%) for second site [6]: 340.2%
- pKd [6, 11]: 5.64

Compound: [In+3] [In^3+]
- pKd [5, 10]: 6.77
- pKd [5, 12]: 8.40
- A280 (%) for first site ([5]; Gamide): 100.0%
- A280 (%) for mixed FeGastrinM complex ([5]; Gamide): 217.7%
- A280 (%) for second site ([5]; Gamide): 74.1%
- pKd [6]: 7.02
- A280 (%) for first site [6]: 100.0%
- A280 (%) for mixed FeGastrinM complex [6]: 255.6%
- A280 (%) for second site [6]: 72.8%
- pKd [6, 11]: 4.85

Compound: [Mn+2] [Mn(II)]
- quenching of Ggly fluorescence [4]: not quench fluorescence
- binding to Ggly [4]: does not bind
- binding to progastrin [2]: does not bind

Compound: [Ru+3] [Ru^3+]
- pKd [5, 10]: 4.92
- pKd [5, 12]: 7.77
- A280 (%) for first site ([5]; Gamide): 100.0%
- A280 (%) for mixed FeGastrinM complex ([5]; Gamide): 264.9%
- A280 (%) for second site ([5]; Gamide): 178.6%
- pKd [6]: 5.92
- A280 (%) for first site [6]: 100.0%
- A280 (%) for mixed FeGastrinM complex [6]: 304.1%
- A280 (%) for second site [6]: 1714.8%
- pKd [6, 11]: 3.44

Compound: [Zn+2] [Zn(II)]
- binding to progastrin [2]: does not bind

Compound: [Sb] [antimony]
- high affinity binding to gastrins [7]: did not show high affinity binding

Compound: [AsH3] [arsenic]
- high affinity binding to gastrins [7]: did not show high affinity binding

Compound: ZGPWLEEEEEAYGWMDFamide [gastrin/Gamide]
- increase of colonic proliferative index [8]: no effect
